# Literature values, collected in patent US20110294815A1, “PROSTACYCLIN ANALOGS” (priority 2008, published 2011).
# Details: patients with hepatic insufficiency vs healthy adults
smiles,measurement,value
"CCCCC[C@H](O)CC[C@@H]1[C@H]2Cc3cccc(OCC(=O)[O-])c3C[C@H]2C[C@H]1O.[Na+] [treprostinil, (1R,2R,3aS,9aS)-[[2,3,3a,4,9,9a-Hexahydro-2-hydroxy-1-[(3S)-3-hydroxyoctyl]-1H-benz[f]inden-5-yl]oxy]acetic acid monosodium salt]",reduction of clearance compared to healthy adults,up to 80%
